#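 Here, GI50 denotes the concentration required for 50% inhibition of growth. The concentration for full growth arrest is given as TGI.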
# Legend:
# Assay in all cases: inhibition of tumour cell growth, NCI panel, 384-well format
# [1] = test system: SW-620 colon
# [2] = test system: NCI-H522 lung
# [3] = test system: LOX IMVI melanoma
# [4] = test system: RPMI-8226 leukemia
# [5] = test system: MOLT-4 leukemia
# [6] = test system: SNB-19 CNS
# [7] = test system: SF-268 CNS
# [8] = test system: NCI-H23 lung
# [9] = test system: SK-MEL-2 melanoma
# [10] = test system: NCI-H322M lung
# [11] = test system: DU-145 prostate
# [12] = test system: HCT-15 colon
# [13] = test system: HCT-116 colon
# [14] = test system: NCI/ADR-RES ovarian
# [15] = test system: M14 melanoma
# [16] = test system: UACC-257 melanoma
# [17] = test system: ACHN renal
# [18] = test system: BT-549 breast
# [19] = test system: HOP-62 NSCLC
# [20] = test system: MDA-MB-435 melanoma
# [21] = test system: SF-295 CNS
# [22] = test system: HOP-92 NSCLC
# [23] = test system: HS 578T breast
# [24] = test system: MDA-MB-468 breast
# [25] = test system: EKVX NSCLC
# [26] = test system: MDA-MB-231 breast
# [27] = test system: UACC-62 melanoma
# [28] = test system: HCC-2998 colon
# [29] = test system: SN12C renal
# [30] = test system: SR leukemia
# [31] = test system: OVCAR-3 ovarian
# [32] = test system: OVCAR-5 ovarian
# [33] = test system: UO-31 renal
# [34] = test system: CAKI-1 renal
# [35] = test system: NCI-H460 NSCLC
# [36] = test system: T-47D breast
# [37] = test system: SK-OV-3 ovarian
# [38] = test system: A498 renal
# [39] = test system: OVCAR-8 ovarian
# [40] = test system: OVCAR-4 ovarian
# [41] = test system: RXF 393 renal
# [42] = test system: CCRF-CEM leukemia
# [43] = test system: COLO 205 colon
# [44] = test system: SK-MEL-28 melanoma
# [45] = test system: TK-10 renal
# [46] = test system: NCI-H226 lung
# [47] = test system: MCF7 breast
smiles,measurement,setting,value
COc1cc2nccc(Oc3ccc(NC(=O)C4(C(=O)Nc5ccc(F)cc5)CC4)cc3)c2cc1OC,GI50,[1],2.13 µM
same,TGI,[1],5.57 µM
same,GI50,[2],2790 nM
same,TGI,[2],7.77 µM
same,GI50,[3],3.24 µM
same,TGI,[3],9.47 µM
same,GI50,[4],3090 nM
same,TGI,[4],7.73 µM
same,GI50,[5],1550 nM
same,TGI,[5],3.62 µM
same,GI50,[6],7.3 µM
same,TGI,[6],> 55.2 µM
same,GI50,[7],3.68 µM
same,TGI,[7],12.4 µM
same,GI50,[8],1340 nM
same,TGI,[8],6.54 µM
same,GI50,[9],3.07 µM
same,TGI,[9],7.42 µM
same,GI50,[10],3.36 µM
same,TGI,[10],16 µM
same,GI50,[11],4.85 µM
same,TGI,[11],31.5 µM
same,GI50,[12],3.22 µM
same,TGI,[12],10.4 µM
same,GI50,[13],3.78 µM
same,TGI,[13],14.2 µM
same,GI50,[14],2.52 µM
same,TGI,[14],9.33 µM
same,GI50,[15],2.67 µM
same,TGI,[15],7.03 µM
same,GI50,[16],4.62 µM
same,TGI,[16],12.6 µM
same,GI50,[17],3.54 µM
same,TGI,[17],16 µM
same,GI50,[18],4.15 µM
same,TGI,[18],12.9 µM
same,GI50,[19],5.16 µM
same,TGI,[19],24.2 µM
same,GI50,[20],3.94 µM
same,TGI,[20],12 µM
same,GI50,[21],1080 nM
same,TGI,[21],6.02 µM
same,GI50,[22],1.29 µM
same,TGI,[22],4.93 µM
same,GI50,[23],1960 nM
same,TGI,[23],6.4 µM
same,GI50,[24],3.67 µM
same,TGI,[24],9.4 µM
same,GI50,[25],4.64 µM
same,TGI,[25],15.7 µM
same,GI50,[26],2.48 µM
same,TGI,[26],6.76 µM
same,GI50,[27],2.23 µM
same,TGI,[27],6.52 µM
same,GI50,[28],5.73 µM
same,TGI,[28],14 µM
same,GI50,[29],0.372 µM
same,TGI,[29],4.71 µM
same,GI50,[30],2950 nM
same,TGI,[30],4490 nM
same,GI50,[31],3.36 µM
same,TGI,[31],10.2 µM
same,GI50,[32],2.96 µM
same,TGI,[32],10.7 µM
same,GI50,[33],3.16 µM
same,TGI,[33],9.08 µM
same,GI50,[34],2.62 µM
same,TGI,[34],9.96 µM
same,GI50,[35],3.14 µM
same,TGI,[35],9.27 µM
same,GI50,[36],2780 nM
same,TGI,[36],10 µM
same,GI50,[37],4.97 µM
same,TGI,[37],15.8 µM
same,GI50,[38],3.29 µM
same,TGI,[38],12.2 µM
same,GI50,[39],3.88 µM
same,TGI,[39],14.6 µM
same,GI50,[40],4.01 µM
same,TGI,[40],13.1 µM
same,GI50,[41],2.73 µM
same,TGI,[41],5.49 µM
same,GI50,[42],1960 nM
same,TGI,[42],3.52 µM
same,GI50,[43],2.14 µM
same,TGI,[43],4.97 µM
same,GI50,[44],3.01 µM
same,TGI,[44],11.3 µM
same,GI50,[45],7.66 µM
same,TGI,[45],33.7 µM
same,GI50,[46],1.41 µM
same,TGI,[46],4.74 µM
same,GI50,[47],3.55 µM
same,TGI,[47],11.1 µM
CN(C)C(=O)c1cc2cnc(Nc3ccc(N4CCNCC4)cn3)nc2n1C1CCCC1,GI50,[1],9.02 µM
same,TGI,[1],> 65.6 µM
same,GI50,[2],29500 nM
same,TGI,[2],82.2 µM
same,GI50,[3],8.51 µM
same,TGI,[3],47.9 µM
same,GI50,[4],607 nM
same,TGI,[4],27.4 µM
same,GI50,[5],730 nM
same,TGI,[5],6.31 µM
same,GI50,[6],> 67.7 µM
same,TGI,[6],> 100 µM
same,GI50,[7],24.8 µM
same,TGI,[7],46.6 µM
same,GI50,[8],25300 nM
same,TGI,[8],61.1 µM
same,GI50,[9],16.8 µM
same,TGI,[9],35.7 µM
same,GI50,[10],21.3 µM
same,TGI,[10],59.5 µM
same,GI50,[11],16.7 µM
same,TGI,[11],43.9 µM
same,GI50,[12],28.8 µM
same,TGI,[12],> 75.4 µM
same,GI50,[13],7.55 µM
same,TGI,[13],23.5 µM
same,GI50,[14],> 100 µM
same,TGI,[14],> 100 µM
same,GI50,[15],30.2 µM
same,TGI,[15],> 89.2 µM
same,GI50,[16],47.6 µM
same,TGI,[16],> 69.7 µM
same,GI50,[17],5.81 µM
same,TGI,[17],46.7 µM
same,GI50,[18],20.2 µM
same,TGI,[18],58.9 µM
same,GI50,[19],29.2 µM
same,TGI,[19],67.6 µM
same,GI50,[20],52.2 µM
same,TGI,[20],> 100 µM
same,GI50,[21],23100 nM
same,TGI,[21],57.4 µM
same,GI50,[22],11.9 µM
same,TGI,[22],57.4 µM
same,GI50,[23],33000 nM
same,TGI,[23],> 58.5 µM
same,GI50,[24],> 59.3 µM
same,TGI,[24],> 100 µM
same,GI50,[25],30.1 µM
same,TGI,[25],> 73 µM
same,GI50,[26],4.09 µM
same,TGI,[26],33.7 µM
same,GI50,[27],18.2 µM
same,TGI,[27],> 63.7 µM
same,GI50,[28],29.2 µM
same,TGI,[28],> 100 µM
same,GI50,[29],20.3 µM
same,TGI,[29],> 73.2 µM
same,GI50,[30],507 nM
same,TGI,[30],1970 nM
same,GI50,[31],33.1 µM
same,TGI,[31],61.7 µM
same,GI50,[32],10.8 µM
same,TGI,[32],85.3 µM
same,GI50,[33],13.8 µM
same,TGI,[33],> 100 µM
same,GI50,[34],8.2 µM
same,TGI,[34],63.6 µM
same,GI50,[35],12.3 µM
same,TGI,[35],> 61.5 µM
same,GI50,[36],9800 nM
same,TGI,[36],> 46.4 µM
same,GI50,[37],> 80.2 µM
same,TGI,[37],> 100 µM
same,GI50,[38],23.9 µM
same,TGI,[38],45.1 µM
same,GI50,[39],37.5 µM
same,TGI,[39],74.9 µM
same,GI50,[40],30.4 µM
same,TGI,[40],> 94 µM
same,GI50,[41],17.5 µM
same,TGI,[41],31 µM
same,GI50,[42],2390 nM
same,TGI,[42],> 34.4 µM
same,GI50,[43],7.64 µM
same,TGI,[43],30.1 µM
same,GI50,[44],37.5 µM
same,TGI,[44],> 66 µM
same,GI50,[45],27.3 µM
same,TGI,[45],> 100 µM
same,GI50,[46],8.83 µM
same,TGI,[46],58.1 µM
same,GI50,[47],23.3 µM
same,TGI,[47],40.7 µM
O=C(Nc1cccc(C(F)(F)F)c1)Nc1cc(S(=O)(=O)NC2CC2)ccc1-c1ccsc1,GI50,[1],3.87 µM
same,TGI,[1],13.9 µM
same,GI50,[2],2690 nM
same,TGI,[2],8.11 µM
same,GI50,[3],4.08 µM
same,TGI,[3],13.1 µM
same,GI50,[4],1880 nM
same,TGI,[4],3.36 µM
same,GI50,[5],1780 nM
same,TGI,[5],3.35 µM
same,GI50,[6],4.51 µM
same,TGI,[6],14.7 µM
same,GI50,[7],4.84 µM
same,TGI,[7],14.4 µM
same,GI50,[8],2830 nM
same,TGI,[8],8.74 µM
same,GI50,[9],2.72 µM
same,TGI,[9],6.07 µM
same,GI50,[10],5.66 µM
same,TGI,[10],17.2 µM
same,GI50,[11],6.35 µM
same,TGI,[11],16.4 µM
same,GI50,[12],3.49 µM
same,TGI,[12],12.5 µM
same,GI50,[13],3.17 µM
same,TGI,[13],10.6 µM
same,GI50,[14],6.69 µM
same,TGI,[14],18.3 µM
same,GI50,[15],5.88 µM
same,TGI,[15],16.7 µM
same,GI50,[16],2.89 µM
same,TGI,[16],8.51 µM
same,GI50,[17],3.25 µM
same,TGI,[17],11.9 µM
same,GI50,[18],7.6 µM
same,TGI,[18],19.8 µM
same,GI50,[19],3.98 µM
same,TGI,[19],13.4 µM
same,GI50,[20],6.53 µM
same,TGI,[20],18.9 µM
same,GI50,[21],2960 nM
same,TGI,[21],9.42 µM
same,GI50,[22],3.36 µM
same,TGI,[22],10.5 µM
same,GI50,[23],2870 nM
same,TGI,[23],7.27 µM
same,GI50,[24],1.96 µM
same,TGI,[24],4.12 µM
same,GI50,[25],4.79 µM
same,TGI,[25],15.5 µM
same,GI50,[26],10.6 µM
same,TGI,[26],23 µM
same,GI50,[27],7.26 µM
same,TGI,[27],19.5 µM
same,GI50,[28],5.7 µM
same,TGI,[28],16.2 µM
same,GI50,[29],4.71 µM
same,TGI,[29],17.6 µM
same,GI50,[30],863 nM
same,TGI,[30],2190 nM
same,GI50,[31],2.42 µM
same,TGI,[31],5.79 µM
same,GI50,[32],13.8 µM
same,TGI,[32],26.8 µM
same,GI50,[33],4.17 µM
same,TGI,[33],14.9 µM
same,GI50,[34],3.59 µM
same,TGI,[34],15.2 µM
same,GI50,[35],2.4 µM
same,TGI,[35],5.08 µM
same,GI50,[36],2620 nM
same,TGI,[36],8.35 µM
same,GI50,[37],7.67 µM
same,TGI,[37],19.8 µM
same,GI50,[38],2.86 µM
same,TGI,[38],8.34 µM
same,GI50,[39],3.73 µM
same,TGI,[39],13.4 µM
same,GI50,[40],5.19 µM
same,TGI,[40],17 µM
same,GI50,[41],3.28 µM
same,TGI,[41],12.1 µM
same,GI50,[42],2400 nM
same,TGI,[42],5.85 µM
same,GI50,[43],5.12 µM
same,TGI,[43],15.7 µM
same,GI50,[44],10.9 µM
same,TGI,[44],22.9 µM
same,GI50,[45],3.96 µM
same,TGI,[45],14.1 µM
same,GI50,[46],4.75 µM
same,TGI,[46],14.7 µM
same,GI50,[47],3.68 µM
same,TGI,[47],12.4 µM

# Source: PubChem BioAssay (NCI)
